For one test, the target named is T1, purified rabbit RyR1 (Oryctolagus cuniculus, UniProt P11716).
T1 construct: we added IpTxa to purified RyR1 incorporated into planar lipid bilayers; from tissue; host or cells: rabbit skeletal muscle (inferred; purified from HSR)
Description: Planar lipid bilayer single-channel recording, purified RyR1. The format is biochemical. To be noted: for EC50 for Psubstate compared with wild type (in words): purified RyR1, 6-100 nM; for EC50: purified RyR1, toxin cis, 6-100 nM, -30 mV, 10 μM Ca^2+, Hill fit, means ± SE of 4–10 experiments, read-out: EC50 for Psubstate. On the procedure: (§1) Single-channel recordings of rabbit skeletal RyR1 incorporated into planar lipid bilayers were carried out as described previously. Lipid bilayers, consisting of brain tissue phosphatidylethanolamine and phosphatidylserine (1 : 1) in decane (20 mg/mL) were formed across a hole of approximately 200 μm diameter. Thinning of the bilayer was monitored by bilayer capacitance. The basic composition of the cis/trans solution consisted of 300 mM cesium methanesulfonate, 10 mM Tris/Hepes (pH 7.2), 2 mM EGTA, and 1.998 mM CaCl2 ([Ca^2+]free = 10 μM). [Ca^2+]free was calculated using the “Chelator” program (Theo Schoenmaker). Cs^+ was selected as the charge carrier to ensure precise control of free [Ca^2+], to increase the channel conductance, and to avoid any contribution from potassium channels present in the SR membrane. Chloride channels were inhibited by using the impermeant anion methanesulfonate. Incorporation of ion channels was carried out as described by Miller and Racker and confirmed by recording the characteristically high single-channel conductance of RyRs. The trans side was maintained at ground and the cis side was clamped at −30 mV relative to the ground. After addition of the IpTxa to the cis chamber, the single channel data were collected at −30 mV for 2–5 min. […] Recordings were filtered with an 8-pole low-pass Bessel filter at 1 kHz and digitalized through a Digidata 1200 series interface (Axon Instruments). Data acquisition and analysis were done with the Axon Instruments software, pClamp v7.0.
(§2) Data were analyzed using the Hill equation described previously:
(§3) (1) Psubstate=(Psubstate, max )/[1+(EC50/[IpTxa])^nH] orPo=(Po, max )/[1+(EC50/[IpTxa])^nH], where (Po, max ) is the Po observed at saturating concentrations of IpTxa, EC50 is the IpTxa concentration for which 50% of Po, max is obtained and nH is the Hill coefficient. Also, Psubstate, max is the Psubstate observed at saturating concentrations of IpTxa, EC50 is the IpTxa concentration for which 50% of Psubstate, max is obtained, and nH is the Hill coefficient. The probability of full open state of the channel (Po) was defined as the ratio of the time spent in the open state to the total time exclusive of time spent in the substate. The probability to obtain substate (Psubstate) was calculated as the time spent in the substate divided by a given total recording time. The durations of the substate were obtained by manual positioning of the cursors and constructing all point histograms. Mean duration of substate was measured by total substate time divided by total substate frequencies.
(§4) Results are given as means ± SE. Significant differences were analyzed using Student's t-test. Differences were considered to be significant when P < 0.05. The fitting of the data to the graphs were carried out using the software, Origin v7.
To determine whether the activation of native RyR1 in SR by IpTxa was due to a direct activation of RyR1 or due to an indirect activation through other proteins associated to RyR1, we added IpTxa to purified RyR1 incorporated into planar lipid bilayers (Figure 3(a)). […] Purity of RyR1 at the final purification step was verified by Coomassie blue staining (Supplementary Figure 2).
Figure 3 Effects of IpTxa on purified rabbit RyR1 incorporated in planar lipid bilayers. (a) Single channel activity of purified RyR1 incorporated in planar lipid bilayers at 10 μM Ca^2+ with or without IpTxa (6–100 nM) was recorded. Single channel currents are shown as downward deflections from the closed level (indicated by c). The holding potential was −30 mV. (b) The plot of Po of purified RyR1 versus various concentrations of IpTxa is shown. (c) The plot of Psubstate of purified RyR1 versus various concentrations of IpTxa is shown. The results are shown as the means ± SE for 7 experiments. […]

For test [1], the target named is T2, rabbit skeletal RyR1 (native RyR1 in HSR) (Oryctolagus cuniculus, UniProt P11716).
T2 construct: tested using native RyR1 in rabbit skeletal HSR; from tissue; host or cells: rabbit fast-twitch back and leg muscles (heavy SR vesicles)
T2 sequence (P11716 whole entry): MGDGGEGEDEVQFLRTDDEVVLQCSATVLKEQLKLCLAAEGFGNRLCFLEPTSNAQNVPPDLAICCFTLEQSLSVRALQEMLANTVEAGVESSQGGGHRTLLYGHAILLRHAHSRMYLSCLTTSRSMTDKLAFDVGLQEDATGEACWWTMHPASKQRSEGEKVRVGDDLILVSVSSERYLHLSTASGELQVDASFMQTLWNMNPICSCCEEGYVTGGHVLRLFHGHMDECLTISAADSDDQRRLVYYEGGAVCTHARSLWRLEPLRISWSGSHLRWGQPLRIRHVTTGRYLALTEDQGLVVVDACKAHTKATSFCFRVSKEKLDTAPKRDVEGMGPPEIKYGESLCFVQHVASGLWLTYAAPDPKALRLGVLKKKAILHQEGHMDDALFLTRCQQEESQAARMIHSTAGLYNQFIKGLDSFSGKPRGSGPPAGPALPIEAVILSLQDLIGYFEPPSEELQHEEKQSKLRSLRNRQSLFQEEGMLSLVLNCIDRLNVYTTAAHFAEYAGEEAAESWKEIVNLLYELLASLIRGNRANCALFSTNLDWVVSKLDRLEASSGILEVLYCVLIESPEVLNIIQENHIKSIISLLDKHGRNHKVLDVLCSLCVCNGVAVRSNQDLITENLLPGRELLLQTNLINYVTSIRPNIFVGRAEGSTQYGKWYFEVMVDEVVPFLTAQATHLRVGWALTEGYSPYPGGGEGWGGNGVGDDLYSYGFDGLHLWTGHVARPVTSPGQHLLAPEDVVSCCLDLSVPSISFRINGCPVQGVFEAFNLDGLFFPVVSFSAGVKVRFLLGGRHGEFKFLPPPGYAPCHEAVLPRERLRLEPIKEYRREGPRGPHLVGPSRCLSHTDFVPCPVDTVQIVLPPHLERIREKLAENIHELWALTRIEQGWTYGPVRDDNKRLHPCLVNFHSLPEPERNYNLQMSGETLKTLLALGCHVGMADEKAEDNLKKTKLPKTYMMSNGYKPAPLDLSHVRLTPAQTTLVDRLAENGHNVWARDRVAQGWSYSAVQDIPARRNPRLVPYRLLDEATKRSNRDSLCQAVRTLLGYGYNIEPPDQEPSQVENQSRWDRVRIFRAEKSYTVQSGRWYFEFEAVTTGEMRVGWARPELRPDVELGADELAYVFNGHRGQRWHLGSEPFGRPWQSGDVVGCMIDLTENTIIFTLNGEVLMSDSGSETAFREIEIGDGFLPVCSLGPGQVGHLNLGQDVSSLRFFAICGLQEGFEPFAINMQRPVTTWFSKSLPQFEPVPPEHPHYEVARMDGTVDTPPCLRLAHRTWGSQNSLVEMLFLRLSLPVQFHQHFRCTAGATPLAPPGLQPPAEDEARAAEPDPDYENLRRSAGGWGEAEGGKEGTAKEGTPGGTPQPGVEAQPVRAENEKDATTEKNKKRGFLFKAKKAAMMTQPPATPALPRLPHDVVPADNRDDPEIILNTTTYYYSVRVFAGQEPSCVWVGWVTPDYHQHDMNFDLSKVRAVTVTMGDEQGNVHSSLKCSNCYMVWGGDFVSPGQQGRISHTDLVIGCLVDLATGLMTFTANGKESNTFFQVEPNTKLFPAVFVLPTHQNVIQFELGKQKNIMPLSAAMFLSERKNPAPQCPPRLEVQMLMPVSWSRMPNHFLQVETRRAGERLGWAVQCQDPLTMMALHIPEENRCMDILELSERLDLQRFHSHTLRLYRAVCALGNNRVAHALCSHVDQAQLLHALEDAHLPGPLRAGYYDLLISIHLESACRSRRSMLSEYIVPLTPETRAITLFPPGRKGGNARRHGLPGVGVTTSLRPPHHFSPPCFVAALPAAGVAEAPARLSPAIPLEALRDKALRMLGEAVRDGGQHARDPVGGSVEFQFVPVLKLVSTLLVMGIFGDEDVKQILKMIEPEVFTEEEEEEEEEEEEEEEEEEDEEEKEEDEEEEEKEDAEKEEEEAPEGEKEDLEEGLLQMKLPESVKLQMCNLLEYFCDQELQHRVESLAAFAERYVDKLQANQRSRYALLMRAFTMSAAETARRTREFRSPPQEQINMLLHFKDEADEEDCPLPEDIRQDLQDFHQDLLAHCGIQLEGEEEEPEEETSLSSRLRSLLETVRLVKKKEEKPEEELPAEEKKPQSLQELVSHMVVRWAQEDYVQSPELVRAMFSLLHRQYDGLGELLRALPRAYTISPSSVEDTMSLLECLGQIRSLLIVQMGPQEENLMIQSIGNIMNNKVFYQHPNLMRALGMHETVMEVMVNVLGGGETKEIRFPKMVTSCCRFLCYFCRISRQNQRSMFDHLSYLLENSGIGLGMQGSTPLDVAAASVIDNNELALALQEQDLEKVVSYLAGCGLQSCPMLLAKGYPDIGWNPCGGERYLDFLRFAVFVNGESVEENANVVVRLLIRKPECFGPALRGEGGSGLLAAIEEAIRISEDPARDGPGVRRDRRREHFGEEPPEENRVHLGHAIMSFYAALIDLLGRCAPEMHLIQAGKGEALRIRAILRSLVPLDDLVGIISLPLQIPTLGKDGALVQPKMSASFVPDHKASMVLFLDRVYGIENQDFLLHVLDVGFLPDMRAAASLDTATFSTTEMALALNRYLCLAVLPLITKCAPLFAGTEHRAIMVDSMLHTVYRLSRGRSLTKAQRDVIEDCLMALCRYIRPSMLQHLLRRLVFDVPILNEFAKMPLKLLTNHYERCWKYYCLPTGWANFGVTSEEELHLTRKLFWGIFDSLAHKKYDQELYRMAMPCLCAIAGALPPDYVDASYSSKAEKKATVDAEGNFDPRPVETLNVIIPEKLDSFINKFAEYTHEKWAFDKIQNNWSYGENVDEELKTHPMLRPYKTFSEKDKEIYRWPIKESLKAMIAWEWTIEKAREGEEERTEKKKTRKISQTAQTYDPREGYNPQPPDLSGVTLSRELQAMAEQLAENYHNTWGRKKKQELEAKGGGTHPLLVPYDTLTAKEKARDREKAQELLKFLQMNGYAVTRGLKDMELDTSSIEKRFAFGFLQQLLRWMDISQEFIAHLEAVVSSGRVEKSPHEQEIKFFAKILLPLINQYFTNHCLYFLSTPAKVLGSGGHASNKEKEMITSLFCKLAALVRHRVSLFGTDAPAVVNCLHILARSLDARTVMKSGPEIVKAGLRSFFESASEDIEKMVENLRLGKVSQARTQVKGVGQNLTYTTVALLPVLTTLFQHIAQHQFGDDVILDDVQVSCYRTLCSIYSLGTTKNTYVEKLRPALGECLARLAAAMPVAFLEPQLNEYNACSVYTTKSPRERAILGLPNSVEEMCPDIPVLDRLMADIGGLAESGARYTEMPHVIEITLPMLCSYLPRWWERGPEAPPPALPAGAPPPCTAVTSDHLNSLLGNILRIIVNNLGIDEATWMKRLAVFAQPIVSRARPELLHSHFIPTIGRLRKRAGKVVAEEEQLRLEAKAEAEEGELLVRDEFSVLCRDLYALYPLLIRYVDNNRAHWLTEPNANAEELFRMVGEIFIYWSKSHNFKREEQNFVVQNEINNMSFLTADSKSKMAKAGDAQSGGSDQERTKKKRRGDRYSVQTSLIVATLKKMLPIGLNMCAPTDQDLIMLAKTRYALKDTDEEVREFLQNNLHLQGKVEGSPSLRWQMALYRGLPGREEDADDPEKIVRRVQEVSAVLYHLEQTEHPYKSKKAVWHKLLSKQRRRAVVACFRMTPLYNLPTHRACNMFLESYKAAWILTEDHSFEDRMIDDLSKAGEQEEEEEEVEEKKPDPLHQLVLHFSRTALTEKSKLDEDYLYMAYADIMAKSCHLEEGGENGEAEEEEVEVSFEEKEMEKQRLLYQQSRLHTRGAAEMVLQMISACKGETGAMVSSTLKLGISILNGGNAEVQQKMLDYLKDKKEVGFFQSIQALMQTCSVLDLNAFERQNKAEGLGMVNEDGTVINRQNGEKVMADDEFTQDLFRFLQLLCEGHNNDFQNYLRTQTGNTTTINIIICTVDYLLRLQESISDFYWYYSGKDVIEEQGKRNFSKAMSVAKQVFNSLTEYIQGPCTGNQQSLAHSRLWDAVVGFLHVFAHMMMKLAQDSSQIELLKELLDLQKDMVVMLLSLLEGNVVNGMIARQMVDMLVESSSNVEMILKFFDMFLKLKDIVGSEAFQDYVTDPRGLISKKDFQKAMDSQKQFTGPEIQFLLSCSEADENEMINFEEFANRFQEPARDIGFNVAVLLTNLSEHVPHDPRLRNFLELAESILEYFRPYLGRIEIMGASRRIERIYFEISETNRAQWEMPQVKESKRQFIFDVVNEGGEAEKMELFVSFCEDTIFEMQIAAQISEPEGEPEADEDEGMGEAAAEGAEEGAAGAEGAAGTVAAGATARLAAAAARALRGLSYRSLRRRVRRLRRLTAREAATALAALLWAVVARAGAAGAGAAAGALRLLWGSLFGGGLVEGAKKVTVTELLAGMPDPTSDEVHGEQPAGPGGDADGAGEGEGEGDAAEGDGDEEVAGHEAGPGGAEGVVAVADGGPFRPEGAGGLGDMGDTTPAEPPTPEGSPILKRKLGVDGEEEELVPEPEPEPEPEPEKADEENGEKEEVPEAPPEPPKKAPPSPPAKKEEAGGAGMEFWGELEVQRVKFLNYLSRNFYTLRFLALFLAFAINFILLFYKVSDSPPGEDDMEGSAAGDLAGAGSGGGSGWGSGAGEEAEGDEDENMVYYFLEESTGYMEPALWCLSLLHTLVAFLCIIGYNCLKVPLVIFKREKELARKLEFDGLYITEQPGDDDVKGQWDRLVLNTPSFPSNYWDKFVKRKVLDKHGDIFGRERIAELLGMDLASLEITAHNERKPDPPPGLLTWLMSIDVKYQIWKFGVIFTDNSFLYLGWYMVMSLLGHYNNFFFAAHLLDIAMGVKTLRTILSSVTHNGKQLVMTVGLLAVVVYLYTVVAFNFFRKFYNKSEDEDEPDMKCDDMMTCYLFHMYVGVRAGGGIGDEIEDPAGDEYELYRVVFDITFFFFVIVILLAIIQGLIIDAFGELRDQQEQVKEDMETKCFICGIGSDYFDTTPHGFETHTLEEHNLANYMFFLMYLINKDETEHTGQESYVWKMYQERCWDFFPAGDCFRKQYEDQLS
As to the kind of experiment: Planar lipid bilayer single-channel recording, native RyR1 in HSR. The format is biochemical. Particulars: -30 mV. On the procedure:
A heavy fraction of fragmented SR vesicles (HSR) containing junctional SR was prepared from rabbit fast-twitch back and leg muscles as described previously.
as §1, §2, §3, §4
To examine how IpTxa modifies RyR1 activity, RyR1 in HSR incorporated in planar lipid bilayers was tested in the presence or absence of synthetic wild-type IpTxa. The chamber solutions for both cis (cytosolic) and trans (luminal) sides included 300 mM cesium methanesulfonate and 10 mM Tris-Hepes (pH 7.2). 10 μM free Ca^2+ was added to the cis side to activate the incorporated RyR1. After an addition of IpTxa to the cis chamber, the single channel gating properties were recorded at a holding potential of −30 mV for over 2 min at each toxin concentration. […] To examine the effects of IpTxa on full open state, we calculated the probability to obtain the full open state (Po) as the time spent in the open state divided by the total time exclusive of the time spent in the substate. The time for recorded Po was in the range of 30 s–2 min. […] The steady-state Po was 0.18 ± 0.02 at 10 μM Ca^2+. […]

For test [2], the target named is rabbit skeletal ryanodine receptor (RyR1) (rabbit) (UniProt P11716).
Test [3] concerns RyR1. Particulars: ref [16], [18]; cited from earlier work. From the text:
Imperatoxin A (IpTxa) from the African scorpion Pandinus imperator is a high-affinity modulator of skeletal RyR (RyR1). […] The inconsistency between occurrence of substate and ryanodine binding to RyR1 affected by K8A or T ...

The test system of test [4] is RyR1. To be noted: cited from earlier work. From the text: Imperatoxin A (IpTxa) from the African scorpion Pandinus imperator is a high-affinity modulator of skeletal RyR (RyR1). […] Stretches of these positively charged residues tend to adopt different secondary structures such as α-helical structure for Peptide A and β-sheet structure for IpTxa and MCa. However, their orientation on the surface of the peptides could be similar. […] Two toxins induced different degree of substate of RyR1 at +40 mV holding potential (28% and 48% of full conductance state for IpTxa and MCa, resp.). […] Thus, the di ...

[5] abbreviates: native RyR1 in SR, toxin cis, 6-100 nM, [Ca^2+]free 10 μM, pH 7.2, Hill fit, means ± SE of 3–9 experiments, read-out: EC50 for Psubstate.

Where two headings read alike, the source gives them in different places. Bridge positions count the residues as written; N and C are the ends. Peptide text beside a SMILES is read from it.

T1 sequence (P11716 whole entry): as above

Broadly, the EC50 is the midpoint of the concentration-response curve. With `CC(C)C[C@@H]1NC(=O)[C@H](Cc2c[nH]cn2)NC(=O)[C@@H]2CCCN2C(=O)[C@H](CC(C)C)NC(=O)[C@@H](NC(=O)[C@H](CC(=O)O)NC(=O)CN)CSSC[C@@H]2NC(=O)[C@@H]3CSSC[C@@H](C(=O)N[C@@H](CCCNC(=N)N)C(=O)O)NC(=O)[C@H](CCCNC(=N)N)NC(=O)[C@H](C)NC(=O)[C@H](CCC(=O)O)NC(=O)[C@H](C)NC(=O)[C@H](CC(N)=O)NC(=O)[C@H]([C@@H](C)O)NC(=O)CNC(=O)[C@H](CCCNC(=N)N)NC(=O)[C@H](CCCNC(=N)N)NC(=O)[C@H](CCCCN)NC(=O)[C@H](CSSC[C@H](NC(=O)[C@H](CCCNC(=N)N)NC(=O)[C@H](CCCCN)NC1=O)C(=O)N[C@@H](CCCCN)C(=O)N[C@@H](C)C(=O)N[C@@H](CC(=O)O)C(=O)N[C@@H](CC(N)=O)C(=O)N[C@@H](CC(=O)O)C(=O)N3)NC(=O)[C@H](CCCCN)NC(=O)[C@H](CCCCN)NC(=O)CNC2=O` [K30A] (H-GDCLPHLKRCKADNDCCGKKCKRRGTNAEARCR-OH; disulfide 3-17, 10-21, 16-32), on purified rabbit RyR1, the “EC50 for Psubstate compared with wild type (in words)” value was “without a significant change of EC50” and the EC50 turned out to be 0.0157 ± 0.00599 µM. The EC50 in test [1] (setting [5]) is 0.0167 ± 0.00286 µM.
For the molecule `CC(C)C[C@@H]1NC(=O)[C@H](Cc2c[nH]cn2)NC(=O)[C@@H]2CCCN2C(=O)[C@H](CC(C)C)NC(=O)[C@@H](NC(=O)[C@H](CC(=O)O)NC(=O)CN)CSSC[C@@H]2NC(=O)[C@@H]3CSSC[C@@H](C(=O)N[C@@H](CCCNC(=N)N)C(=O)O)NC(=O)[C@H](C)NC(=O)[C@H](CCCCN)NC(=O)[C@H](CCC(=O)O)NC(=O)[C@H](C)NC(=O)[C@H](CC(N)=O)NC(=O)[C@H]([C@@H](C)O)NC(=O)CNC(=O)[C@H](CCCNC(=N)N)NC(=O)[C@H](CCCNC(=N)N)NC(=O)[C@H](CCCCN)NC(=O)[C@H](CSSC[C@H](NC(=O)[C@H](CCCNC(=N)N)NC(=O)[C@H](CCCCN)NC1=O)C(=O)N[C@@H](CCCCN)C(=O)N[C@@H](C)C(=O)N[C@@H](CC(=O)O)C(=O)N[C@@H](CC(N)=O)C(=O)N[C@@H](CC(=O)O)C(=O)N3)NC(=O)[C@H](CCCCN)NC(=O)[C@H](CCCCN)NC(=O)CNC2=O` [R31A] (H-GDCLPHLKRCKADNDCCGKKCKRRGTNAEKACR-OH; disulfide 3-17, 10-21, 16-32), the “EC50 for Psubstate compared with wild type (in words)” value at purified rabbit RyR1 is “without a significant change of EC50”. For the same molecule, the concentration giving a half-maximal response (EC50) at purified rabbit RyR1 turned out to be 0.0182 ± 0.00165 µM; in test [1] (setting [5]), 0.0192 ± 0.00465 µM.
On the same counts, the results for `CC(C)C[C@@H]1NC(=O)[C@H](Cc2c[nH]cn2)NC(=O)[C@@H]2CCCN2C(=O)[C@H](CC(C)C)NC(=O)[C@@H](NC(=O)[C@H](CC(=O)O)NC(=O)CN)CSSC[C@@H]2NC(=O)[C@@H]3CSSC[C@@H](C(=O)N[C@@H](C)C(=O)O)NC(=O)[C@H](CCCNC(=N)N)NC(=O)[C@H](CCCCN)NC(=O)[C@H](CCC(=O)O)NC(=O)[C@H](C)NC(=O)[C@H](CC(N)=O)NC(=O)[C@H]([C@@H](C)O)NC(=O)CNC(=O)[C@H](CCCNC(=N)N)NC(=O)[C@H](CCCNC(=N)N)NC(=O)[C@H](CCCCN)NC(=O)[C@H](CSSC[C@H](NC(=O)[C@H](CCCNC(=N)N)NC(=O)[C@H](CCCCN)NC1=O)C(=O)N[C@@H](CCCCN)C(=O)N[C@@H](C)C(=O)N[C@@H](CC(=O)O)C(=O)N[C@@H](CC(N)=O)C(=O)N[C@@H](CC(=O)O)C(=O)N3)NC(=O)[C@H](CCCCN)NC(=O)[C@H](CCCCN)NC(=O)CNC2=O` [R33A] (H-GDCLPHLKRCKADNDCCGKKCKRRGTNAEKRCA-OH; disulfide 3-17, 10-21, 16-32) are “without a significant change of EC50”, 0.0193 ± 0.00105 µM and 0.016 ± 0.00565 µM.
`CC(C)C[C@@H]1NC(=O)[C@H](Cc2c[nH]cn2)NC(=O)[C@@H]2CCCN2C(=O)[C@H](CC(C)C)NC(=O)[C@@H](NC(=O)[C@H](CC(=O)O)NC(=O)CN)CSSC[C@@H]2NC(=O)[C@@H]3CSSC[C@@H](C(=O)N[C@@H](CCCNC(=N)N)C(=O)O)NC(=O)[C@H](CCCNC(=N)N)NC(=O)[C@H](CCCCN)NC(=O)[C@H](CCC(=O)O)NC(=O)[C@H](C)NC(=O)[C@H](CC(N)=O)NC(=O)[C@H]([C@@H](C)O)NC(=O)CNC(=O)[C@H](CCCNC(=N)N)NC(=O)[C@H](CCCNC(=N)N)NC(=O)[C@H](CCCCN)NC(=O)[C@H](CSSC[C@H](NC(=O)[C@H](CCCNC(=N)N)NC(=O)[C@H](CCCCN)NC1=O)C(=O)N[C@@H](CCCCN)C(=O)N[C@@H](C)C(=O)N[C@@H](CC(=O)O)C(=O)N[C@@H](CC(N)=O)C(=O)N[C@@H](CC(=O)O)C(=O)N3)NC(=O)[C@H](CCCCN)NC(=O)[C@H](CCCCN)NC(=O)CNC2=O` [Wild type, Imperatoxin A] (H-GDCLPHLKRCKADNDCCGKKCKRRGTNAEKRCR-OH; disulfide 3-17, 10-21, 16-32): the EC50 on purified rabbit RyR1 came to 0.0171 ± 0.00231 µM; in test [1] (native RyR1, toxin cis, 10 μM Ca^2+, Hill fit, means ± SE of ten experiments, read-out: EC50 for Po), 0.0174 ± 0.00467 µM; in test [1] (setting [5]) it was 0.0233 ± 0.00237 µM.
Regarding “Imperatoxin A (IpTxa), synthetic wild type (from UniProt P59868 1-33) (peptide)”, the mean duration of substate of native RyR1 in HSR at 30 nM toxin in test [2] turned out to be 4.56 s.
For the molecule “IpTxa D2A (from UniProt P59868 1-33) (peptide)”, in test [2], the mean duration of substate of native RyR1 in HSR at 30 nM toxin is 2.96 s.
On the same count and under the same terms, then “IpTxa R9A (from UniProt P59868 1-33) (peptide)”, with 5.86 s.
maurocalcine [MCa]: the “[^3H]ryanodine binding (in words)” value in the test on RyR1 [3] is “strongly enhances [^3H]ryanodine binding to RyR1”. The “substate current amplitude, % of full conductance state” value in the test on RyR1 [4] (+40 mV holding potential, ref [10], [13]) was 48%. For the same molecule, the “substate current amplitude, % of full conductance” value with RyR1 [4] (long-lasting substate of RyR1, ref [16], [18]) is recorded as 48%. Moreover, the “modification of channel gating by MCa and peptide A together (in words)” value in the test with RyR1 [4] (ref [16]) was “in an additive, but not competitive, manner”.

(Values after publication PMC3192407, “Both Basic and Acidic Amino Acid Residues of IpTxa Are Involved in Triggering Substate of RyR1” (Journal of Biomedicine and Biotechnology, 2011).)
